From patent US20040242426A1, “New derivatives of substituted anilined with herbicidal activity” (priority 2001, published 2004)

Experiments:
Assay type in all cases: in vivo
[1] = tested on: Amarantus retroflexus (AR); experiment: Herbicidal activity in pre-emergence; settings: dose 500 g/ha, 28 days after treatment, damage scale 0-5 vs blank
Method: (§1) Determination of the herbicidal activity and phytotoxicity in pre-emergence. The herbicidal activity of the compounds of the invention in pre-emergence was evaluated according to the following operating procedure. The vegetable species of interest (weeds or crops) were planted in vases having a diameter of over 10 cm, a height of 10 cm and containing sandy soil. 10 vases were used for each vegetable species. The vases were divided into a further two groups each containing 5 vases for each weed or crop. 24 hours after planting, the vases were dampened with a light shower. An hour after wetting, the first group of vases was treated with a hydro-acetone dispersion containing acetone at 10% v, the product to be evaluated at the desired concentration and Tween 20 at 0.5%. The second group was only treated with a hydroacetone solution containing acetone at 10% by volume and Tween 20 at 0.5%, and was used as a comparison (blank). After the treatment, all the vases were uniformly watered and kept in a conditioned environment under the following environmental conditions: temperature: 24° C. relative humidity: 60% photoperiod: 16 hours light intensity: 10,000 lux 28 days after treatment, the herbicidal activity was evaluated on the basis of the following scale of values referring to the percentage of damage measured on the treated plants with respect to those not treated (blank): Table 3 indicates the results obtained with compounds C-1, C-2 and C-3, evaluated at a dose of 500 g/ha on the following vegetable species: Amarantus retroflexus (AR), Capsella bursa pastoris (CP), Chenopodium album (CA), Galium aparine (GA), Matricaria chamomilla (MC), Papaver rhoeas (PR), Portulaca oleracea (PO), Stellaria media (SM), Alopecurus myosuroides (AM), Panicum dicothomiflorum (PD), maize (M), wheat (F).

[2] = tested on: Alopecurus myosuroides (AM); experiment: Herbicidal activity in pre-emergence; settings: dose 500 g/ha, 28 days after treatment, damage scale 0-5 vs blank
Method: as §1

[3] = tested on: Matricaria chamomilla (MC); experiment: Herbicidal activity in pre-emergence; settings: dose 500 g/ha, 28 days after treatment, damage scale 0-5 vs blank
Method: as §1

Papaver rhoeas (PR) = experiment: Herbicidal activity in pre-emergence; settings: dose 500 g/ha, 28 days after treatment, damage scale 0-5 vs blank
Method: as §1

Chenopodium album (CA) = experiment: Herbicidal activity in pre-emergence; settings: dose 500 g/ha, 28 days after treatment, damage scale 0-5 vs blank
Method: as §1

Galium aparine (GA) = experiment: Herbicidal activity in pre-emergence; settings: dose 500 g/ha, 28 days after treatment, damage scale 0-5 vs blank
Method: as §1

[4] = tested on: Panicum dicothomiflorum (PD); experiment: Herbicidal activity in pre-emergence; settings: dose 500 g/ha, 28 days after treatment, damage scale 0-5 vs blank
Method: as §1

Stellaria media (SM) = experiment: Herbicidal activity in pre-emergence; settings: dose 500 g/ha, 28 days after treatment, damage scale 0-5 vs blank
Method: as §1

[5] = tested on: Capsella bursa pastoris (CP); experiment: Herbicidal activity in pre-emergence; settings: dose 500 g/ha, 28 days after treatment, damage scale 0-5 vs blank
Method: as §1

Portulaca oleracea (PO) = experiment: Herbicidal activity in pre-emergence; settings: dose 500 g/ha, 28 days after treatment, damage scale 0-5 vs blank
Method: as §1

wheat (F) = experiment: Phytotoxicity in pre-emergence; settings: wheat (crop), dose 500 g/ha, 28 days after treatment, damage scale 0-5 vs blank
Method: (§2) Determination of the herbicidal activity and phytotoxicity in pre-emergence. The herbicidal activity of the compounds of the invention in pre-emergence was evaluated according to the following operating procedure. The vegetable species of interest (weeds or crops) were planted in vases having a diameter of over 10 cm, a height of 10 cm and containing sandy soil. 10 vases were used for each vegetable species. The vases were divided into a further two groups each containing 5 vases for each weed or crop. 24 hours after planting, the vases were dampened with a light shower. An hour after wetting, the first group of vases was treated with a hydro-acetone dispersion containing acetone at 10% v, the product to be evaluated at the desired concentration and Tween 20 at 0.5%. The second group was only treated with a hydroacetone solution containing acetone at 10% by volume and Tween 20 at 0.5%, and was used as a comparison (blank). […]

maize (M) = experiment: Phytotoxicity in pre-emergence; settings: maize (crop), dose 500 g/ha, 28 days after treatment, damage scale 0-5 vs blank
Method: as §2

Row | SMILES | Herbicidal activity in pre-emergence, AR [1] | Herbicidal activity in pre-emergence, AM [2] | Herbicidal activity in pre-emergence, MC [3] | Herbicidal activity in pre-emergence, PR (Papaver rhoeas (PR)) | Herbicidal activity in pre-emergence, CA (Chenopodium album (CA)) | Herbicidal activity in pre-emergence, GA (Galium aparine (GA)) | Herbicidal activity in pre-emergence, PD [4] | Herbicidal activity in pre-emergence, SM (Stellaria media (SM)) | Herbicidal activity in pre-emergence, CP [5] | Herbicidal activity in pre-emergence, PO (Portulaca oleracea (PO)) | Herbicidal activity (phytotoxicity) in pre-emergence, F (wheat (F)) | Herbicidal activity (phytotoxicity) in pre-emergence, M (maize (M))
1 | Cc1ccc(NC(=O)C2CC2)c(OCc2cccc(C(F)(F)F)c2)c1 [C-1, N-[4-methyl-2-(3-trifluoromethylphenyl)-methoxyphenyl]cyclopropanecarboxamide] | 5 (5=90% damage—death of the plant) | 5 (5=90% damage—death of the plant) | 5 (5=90% damage—death of the plant) | 5 (5=90% damage—death of the plant) | 5 (5=90% damage—death of the plant) | 5 (5=90% damage—death of the plant) | 5 (5=90% damage—death of the plant) | 5 (5=90% damage—death of the plant) | 5 (5=90% damage—death of the plant) | 5 (5=90% damage—death of the plant) |  | 
2 | Cc1ccc(NC(=O)C2CC2)c(COc2cccc(C(F)(F)F)c2)c1 [C-2, N-[4-methyl-2-(3-trifluoromethylphenoxy)methylphenyl]cyclopropanecarboxamide] | 5 (5=90% damage—death of the plant) | 5 (5=90% damage—death of the plant) | 5 (5=90% damage—death of the plant) | 5 (5=90% damage—death of the plant) | 5 (5=90% damage—death of the plant) | 5 (5=90% damage—death of the plant) | 5 (5=90% damage—death of the plant) | 5 (5=90% damage—death of the plant) | 5 (5=90% damage—death of the plant) | 5 (5=90% damage—death of the plant) | 0 (0=0-9% damage) | 0 (0=0-9% damage)
